Tests used:
α6T205Cβ2γ2 receptor = molecular target: T1, α6T205Cβ2γ2 receptor (Rattus norvegicus, UniProt P18508+P30191, T224C); experiment: Affinity estimate with [^3H]Ro15–4513; format: binding; settings: read-out: Estimated affinity
T1 construct: expressed in transfected cells; host or cells: HEK293 cells (ATCC CRL 1573), membranes
Procedure: (§1) cDNAs coding for the αx (x = 1, 2, 3, 6), β2, and γ2S subunits DNA (20 µg : 20 µg : 20 µg) per 9 cm diameter dish were transfected in human embryonic kidney (HEK) 293 cells (American Type of Culture Collection, MD, USA, CRL 1573) using the calcium phosphate precipitation technique. For α5 containing receptors β2 was replaced by β1. […] Culturing of cells and membrane preparation were done as described before.
(§2) The properties of the recombinant mutant receptors were only estimated. For this affinity estimate, membranes were re-suspended in phosphate buffer using a Teflon homogenizer. They were incubated in a total volume of 360 µl for 1 h on ice in the presence of [^3H]Ro15–1788 (78.6 Ci/mmol; PerkinElmer Life Sciences). The final protein concentration was 0.1–1 mg of protein/ml. Total binding was measured at 0.5 and 5 nM [^3H]Ro15–1788. Nonspecific binding was determined under the same condition but in the presence of 100 µM unlabeled Ro15–1788 and amounted to less than 10% of total binding, except for α2S206Cβ2γ2 and α5T208Cβ2γ2 where it amounted to 10–17%. Expression levels of α6β2γ2 receptors were estimated with [^3H]Ro15–4513. Membranes were collected by rapid vacuum filtration on GF/C filters. After three washing steps (3 sec each) with 5 ml of phosphate buffer, the filter-retained radioactivity was determined by liquid scintillation counting.

α1G207Cβ2γ2 receptors = tested on: T2, α1G207Cβ2γ2 receptors; experiment: Radioactive ligand binding; settings: not shown
T2 construct: expressed in transfected cells; host or cells: HEK293 cells (ATCC CRL 1573), membranes
Procedure: as §1, §2

α2G207Cβ2γ2 receptors = tested on: T3, α2G207Cβ2γ2 receptors; experiment: Radioactive ligand binding; settings: not shown
T3 construct: expressed in transfected cells; host or cells: HEK293 cells (ATCC CRL 1573), membranes
Procedure: as §1, §2

[1] = tested on: α6N204Cβ2γ2 GABAA receptor; experiment: Covalent reaction at the functional level (two-electrode voltage clamp, Xenopus oocytes); format: cell-based; settings: 1 µM Abecarnil at GABA EC2–5, naive oocytes
Procedure: (§3) Capped cRNAs were synthesized (Ambion, Austin, TX, USA) from the linearized plasmids with a cytomegalovirus promotor (pCMVvectors) containing the different subunits, respectively. A poly-A tail of about 400 residues was added to each transcript using yeast poly- A polymerase (United States Biologicals, Cleveland, OH, USA). The concentration of the cRNA was quantified on a formaldehyde gel using Radiant Red stain (Bio-Rad) for visualization of the RNA. Known concentrations of RNA ladder (Invitrogen) were loaded as standard on the same gel. cRNAs were precipitated in ethanol/isoamylalcohol 19∶ 1, the dried pellet dissolved in water and stored at −80°C. cRNA mixtures were prepared from these stock solutions and stored at −80°C. Xenopus laevis oocytes were prepared, injected and defolliculated as described previously, [39]. They were injected with 50 nL of the cRNA solution containing wild type or mutated α1 or α2, α3, α5, α6 and wild type β2 and γ2 subunits at a concentration of 10 nM : 10 nM : 50 nM [40] and then incubated in modified Barth’s solution at +18°C for at least 24 h before the measurements.
(§4) Currents were measured using a modified two-electrode voltage clamp amplifier Oocyte clamp OC-725 (Warner Instruments) in combination with a XY-recorder (90% response time 0.1s) or digitized at 100 Hz using a PowerLab 2/20 (AD Instruments) using the computer programs Chart (ADInstruments GmbH, Spechbach, Germany). Tests with a model oocyte were performed to ensure linearity in the larger current range. The response was linear up to 15 µA.
(§5) Electrophysiological experiments were performed by using the two-electrode voltage clamp method at a holding potential of −80 mV. The perfusion medium contained 90 mM NaCl, 1 mM KCl, 1 mM MgCl2, 1 mM CaCl2, and 5 mM Na-HEPES (pH 7.4) and was applied by gravity flow 6 ml/min. The perfusion medium was applied through a glass capillary with an inner diameter of 1.35 mm, the mouth of which was placed about 0.4 mm from the surface of the oocyte. Allosteric modulation via the benzodiazepine site was measured at a GABA concentration eliciting 2–5% of the maximal GABA current amplitude. GABA was applied for 20 s alone or in combination with allosteric compound. 6 ml of the covalent reacting compound was applied to the oocyte and incubated for 3 min while stopping the flow of the perfusion medium. Modulation of GABA currents was expressed as (I(modulator + GABA)/IGABA –1) * 100%. The perfusion system was cleaned between drug applications by washing with DMSO to avoid contamination.

[2] = tested on: α6S203Cβ2γ2 GABAA receptor; experiment: as above; format: cell-based; settings: 1 µM Abecarnil at GABA EC2–5, naive oocytes
Procedure: as §3, §4, §5

[3] = tested on: α1S204Cβ2γ2 GABAA receptor; experiment: as above; format: cell-based; settings: 1 µM diazepam at GABA EC2–5, naive oocytes
Procedure: as §3, §4, §5

[4] = tested on: α3S230Cβ2γ2 GABAA receptor; experiment: as above; format: cell-based; settings: 1 µM diazepam at GABA EC2–5, naive oocytes
Procedure: as §3, §4, §5

[5] = tested on: α3T231Cβ2γ2 GABAA receptor; experiment: as above; format: cell-based; settings: 1 µM diazepam at GABA EC2–5, naive oocytes
Procedure: as §3, §4, §5

[6] = tested on: α5S209Cβ2γ2 GABAA receptor; experiment: as above; format: cell-based; settings: 1 µM diazepam at GABA EC2–5, naive oocytes
Procedure: as §3, §4, §5

[7] = tested on: α5T208Cβ2γ2 GABAA receptor; experiment: as above; format: cell-based; settings: 1 µM diazepam at GABA EC2–5, naive oocytes
Procedure: as §3, §4, §5

[8] = tested on: T4, α5T210Cβ2γ2 GABAA receptor; experiment: as above; format: cell-based; settings: 1 µM diazepam at GABA EC2–5, naive oocytes
T4 construct: expressed in transfected cells; host or cells: Xenopus laevis oocytes (cRNA injection)
Procedure: as §3, §4, §5

α6 containing receptors = tested on: T5, α6 containing receptors; experiment: Functional modulation of GABA currents (Xenopus oocytes); format: cell-based; settings: functional level
T5 construct: expressed in transfected cells; host or cells: Xenopus laevis oocytes (cRNA injection)
Procedure: as §3, with “Xenopus laevis oocytes were prepared, injected and defolliculated as described previously, [39]. They were injected with 50 nL of the cRNA solution containing wild type or mutated α1 or α2, α3, α5, α6 and wild type β2 and γ2 subunits at a concentration of 10 nM : 10 nM : 50 nM [40] and then incubated in modified Barth’s solution at +18°C for at least 24 h before the measurements.” left out
as §4, with “Tests with a model oocyte were performed to ensure linearity in the larger current range. The response was linear up to 15 µA.” left out
Electrophysiological experiments were performed by using the two-electrode voltage clamp method at a holding potential of −80 mV. […] Allosteric modulation via the benzodiazepine site was measured at a GABA concentration eliciting 2–5% of the maximal GABA current amplitude. […] Modulation of GABA currents was expressed as (I(modulator + GABA)/IGABA –1) * 100%. […]

T1 sequence (P30191 20-453 T224C): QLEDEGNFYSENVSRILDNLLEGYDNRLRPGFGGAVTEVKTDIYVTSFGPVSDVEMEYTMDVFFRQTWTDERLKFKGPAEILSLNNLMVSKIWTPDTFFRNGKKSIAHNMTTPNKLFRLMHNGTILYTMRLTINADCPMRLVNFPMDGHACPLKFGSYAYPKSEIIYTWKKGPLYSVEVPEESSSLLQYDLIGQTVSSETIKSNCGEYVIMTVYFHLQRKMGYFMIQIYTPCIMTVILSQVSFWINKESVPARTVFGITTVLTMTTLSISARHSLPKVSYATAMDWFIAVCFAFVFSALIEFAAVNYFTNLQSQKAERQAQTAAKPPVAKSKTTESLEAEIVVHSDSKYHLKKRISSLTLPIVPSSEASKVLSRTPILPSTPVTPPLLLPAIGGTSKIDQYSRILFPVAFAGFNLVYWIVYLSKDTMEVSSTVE
T1 sequence (P63138 25-474 partner limits assumed): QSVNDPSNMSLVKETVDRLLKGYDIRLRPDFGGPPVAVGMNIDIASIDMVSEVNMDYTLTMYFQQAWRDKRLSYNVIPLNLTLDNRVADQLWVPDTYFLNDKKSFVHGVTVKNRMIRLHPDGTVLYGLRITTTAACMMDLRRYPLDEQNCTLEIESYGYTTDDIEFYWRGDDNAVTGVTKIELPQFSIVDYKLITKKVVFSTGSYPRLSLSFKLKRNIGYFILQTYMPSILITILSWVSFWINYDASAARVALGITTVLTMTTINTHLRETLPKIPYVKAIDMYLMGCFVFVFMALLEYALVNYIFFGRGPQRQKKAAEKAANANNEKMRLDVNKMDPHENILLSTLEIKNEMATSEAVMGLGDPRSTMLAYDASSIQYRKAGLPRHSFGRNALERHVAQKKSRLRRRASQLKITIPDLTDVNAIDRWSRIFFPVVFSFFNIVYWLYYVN
T1 sequence (P18508 39-466): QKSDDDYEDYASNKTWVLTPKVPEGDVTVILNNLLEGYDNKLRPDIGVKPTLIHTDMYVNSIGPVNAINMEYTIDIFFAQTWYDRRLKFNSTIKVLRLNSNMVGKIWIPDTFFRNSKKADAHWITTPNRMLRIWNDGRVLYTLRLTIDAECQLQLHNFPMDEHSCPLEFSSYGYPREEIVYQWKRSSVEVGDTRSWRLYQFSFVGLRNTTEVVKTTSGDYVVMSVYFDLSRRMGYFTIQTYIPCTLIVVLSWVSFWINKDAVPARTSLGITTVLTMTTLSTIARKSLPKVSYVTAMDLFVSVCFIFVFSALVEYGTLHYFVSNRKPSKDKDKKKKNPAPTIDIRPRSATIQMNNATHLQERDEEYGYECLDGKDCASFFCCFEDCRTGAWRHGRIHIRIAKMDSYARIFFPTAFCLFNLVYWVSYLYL

## CCOC(=O)c1ncn2c1CN(C)C(=O)c1cc(N=[N+]=[N-])ccc1-2 [[^3H]Ro15–4513]
α6T205Cβ2γ2 receptor
  Kd: 4 nM

## CN1C(=O)CN=C(c2ccccc2F)c2cc([N+](=O)[O-])ccc21 [[^3H]flunitrazepam, flunitrazepam]
α1G207Cβ2γ2 receptors
  High affinity binding (in words): did not confer to the expressed receptors high affinity
α2G207Cβ2γ2 receptors
  High affinity binding (in words): did not confer to the expressed receptors high affinity

## COCc1c(C(=O)OC(C)C)ncc2[nH]c3ccc(OCc4ccccc4)cc3c12 [Abecarnil, reference compound]
[1]
  % allosteric modulation, DZ (*1µM Abecarnil was used): 70±40 %
[2]
  % allosteric modulation, DZ (*1µM Abecarnil was used): 50±20 %

## CN1C(=O)CN=C(c2ccccc2)c2cc(Cl)ccc21 [DZ, diazepam, reference compound]
[3]
  % allosteric modulation, DZ: 126±9%
[4]
  % allosteric modulation, DZ: 149±44%
[5]
  % allosteric modulation, DZ: 88±45%
[6]
  % allosteric modulation, DZ: 103±3%
[7]
  % allosteric modulation, DZ: 129±38%
[8]
  % allosteric modulation, DZ: 82±14%
α6 containing receptors
  Response to diazepam (in words): did not respond

## CCOC(=O)c1ncn2c1CN(C)C(=O)c1cc(F)ccc1-2 [[^3H]Ro 15–1788]
α1G207Cβ2γ2 receptors
  High affinity binding (in words): did not confer to the expressed receptors high affinity
α2G207Cβ2γ2 receptors
  High affinity binding (in words): did not confer to the expressed receptors high affinity

Source: paper PMC3407089, “Influence of GABAA Receptor α Subunit Isoforms on the Benzodiazepine Binding Site” (PLoS ONE, 2012)
